Entries after “also recorded” stand apart in the source; their conditions may differ. Where two headings read alike, the source gives them in different places.
Assays:
necrosis = test: Necrosis inhibitory activity (cell necrosis / cell viability assay); type: cell-based
Source text: Necrosis Inhibitory Activity
(§1) Representative IC50 of hRIP1 Kinase Assay Correlated with Our IC50 of Cell Necrosis Assay: […]

ferroptosis = test: Ferroptosis inhibitor activity; type: cell-based; conditions: 1 uM threshold activity extrapolated
Source text: Ferroptosis Inhibitor Activity 1 Um Threshold Activity Extrapolated

Human RIP1 kinase = Human RIP1 kinase (Homo sapiens (Human), UniProt Q13546); test: Human RIP1 kinase assay; type: biochemical; conditions: given as bound or range
Human RIP1 kinase, sequence (Q13546 whole entry): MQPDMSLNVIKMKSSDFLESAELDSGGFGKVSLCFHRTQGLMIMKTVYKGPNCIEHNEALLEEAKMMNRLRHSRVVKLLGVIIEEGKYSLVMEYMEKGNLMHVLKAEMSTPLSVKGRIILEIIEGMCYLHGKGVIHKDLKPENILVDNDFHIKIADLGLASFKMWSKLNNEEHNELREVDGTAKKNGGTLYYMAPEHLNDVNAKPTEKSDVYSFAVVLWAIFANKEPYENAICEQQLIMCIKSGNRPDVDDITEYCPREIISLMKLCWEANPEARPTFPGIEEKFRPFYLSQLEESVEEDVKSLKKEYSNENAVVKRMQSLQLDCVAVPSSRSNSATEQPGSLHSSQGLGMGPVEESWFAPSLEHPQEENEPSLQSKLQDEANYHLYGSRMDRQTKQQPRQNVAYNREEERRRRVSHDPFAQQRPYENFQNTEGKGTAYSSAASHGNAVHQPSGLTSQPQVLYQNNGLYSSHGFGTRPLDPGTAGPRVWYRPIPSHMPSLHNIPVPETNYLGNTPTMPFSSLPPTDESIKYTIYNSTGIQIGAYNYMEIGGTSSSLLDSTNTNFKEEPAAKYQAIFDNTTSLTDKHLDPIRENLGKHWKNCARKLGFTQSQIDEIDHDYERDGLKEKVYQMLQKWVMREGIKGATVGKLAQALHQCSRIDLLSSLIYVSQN
Source text: as §1

HT-29 = test: EC50 in HT-29; type: cell-based; conditions: Homo sapiens
[1] = Liver microsome stability, human; type: in vitro ADME; conditions: liver microsomes, liver microsome stability, read-out: Human T1/2
Source text: (§2) Representative Metabolic Stability Data I; +, Extrapolated.

[2] = Liver microsome stability, rat; type: in vitro ADME; conditions: liver microsomes
Source text: as §2

[3] = Liver microsome stability, mouse; type: in vitro ADME; conditions: liver microsomes
Source text: as §2

[4] = Liver microsome stability, dog; type: in vitro ADME; conditions: dog, liver microsomes
Source text: as §2

[5] = Liver microsome stability, monkey; type: in vitro ADME; conditions: monkey, liver microsomes
Source text: as §2

[6] = Hepatocyte stability, human; type: in vitro ADME; conditions: human, hepatocytes, read-out: Human T1/2
Source text: (§3) Representative Metabolic Stability Data II, +, Extrapolated.

[7] = Hepatocyte stability, mini-pig; type: in vitro ADME; conditions: minipig, hepatocytes, read-out: mini-pig T1/2
Source text: as §3

[8] = Hepatocyte stability, monkey; type: in vitro ADME; conditions: monkey, hepatocytes, read-out: Monkey T1/2
Source text: as §3

PK in rat = test: PK in rat; set-up: species or system SD rat; conditions: Sprague-Dawley, in vivo; for half-life / bioavailability: rat
Source text: Representative PK Date of Pro-Drug Compounds

PK in mouse = conditions: in vivo
PK in dog = conditions: in vivo
[9] = test system: mouse EAE model of multiple sclerosis; test: Mouse EAE model of multiple sclerosis; type: in vivo, C57/BL6 mice
Source text: A mouse EAE model of multiple sclerosis was established by immunizing C57/BL6 mice with MOG35-55 (amino acids 35-55 of myelin oligodendrocyte glycoprotein) to induce autoimmune reaction to the myelin of the CNS. Immune reaction causes damage to the myelin, and subsequently the neurons, resulting in animal paralysis.
SIR1-365 was delivered by food at 10 g/kg and FTY-720 was used as a positive control. Mice were feed with FTY-720 containing drinking water or with SIR1-365 containing chow 2 days before 1st immunization for 28 consecutive days. Scoring started at Day 8 post-1st immunization.
The results of pathological studies indicated myelin destruction of the spinal cord was protected by SIR1-365. Three different spinal cord regions were sectioned and stained with hematoxylin and eosin (H&E), spinal cord damages were scored and quantified. Feeding with SIR1-365 containing food protected spinal cord damage induced by auto-immune reaction in EAE model.

[10] = test system: TNF-α-induced SIRS in mice; test: Mouse SIRS model (TNF-α-induced mortality); type: in vivo, C57BI/6J mice; conditions: TNF-α intravenously 2 minutes after
Method: Effect on Mouse SIRS Model Sepsis preceded by systemic inflammatory response syndrome (SIRS), is a major cause of death in critically ill patients. TNF-α functions as a key mediator in SIRS pathogenesis by the induction of RIP1-RIP3 mediated necroptosis of the liver.
SIR1-365 was administrated as a single dose by oral gavage at 3 different doses: 1, 3, and 10 mg/kg to C57BI/6J mice. TNF-α was delivered intravenously 2 minutes after SIR1-365 administration. 87.5% (7 of 8) mice in the control group (given vehicle) died within 36 hours, whereas 50% (4 of 8) mice given SIR1-365 at 1 mg/kg and 25% (2 of 8) mice given SIR1-365 at 3 mg/kg died in the same period.

[11] = Hepatocyte Stability, comparison table
[12] = po, 60 mg/kg, SD rat, dose 60 mg/Kg micropower

For CCC(C)(C)C(=O)N(O)Cc1cc(F)cc(F)c1 [Compound 13, N-(3,5-difluorobenzyl)-N-hydroxy-2,2-dimethylbutanamide], the EC50 (necrosis; Necrosis Inhibitory Activity, given as range, read-out: EC50) was 1 to 1000 nM, the EC50 (necrosis; cell necrosis assay, given as bound or range, read-out: Cell viability assay, EC50) was < 100 nM and the EC50 (ferroptosis) was 1 to 10 µM. For the same compound, the IC50 (Human RIP1 kinase) was < 100 nM, the EC50 (HT-29) was 28 nM and the half-life [1] was 228 min. It also gave a half-life ([2]; comparison table with WO2016/101885 compounds, read-out: Rat Liver Microsome T1/2) of 20 min, a half-life ([2]; liver microsome stability, read-out: Rat T1/2) of 19.9 min and a half-life ([3]; comparison table with WO2016/101885 compounds, read-out: Mouse Liver Microsome T1/2) of 17 min. The half-life ([3]; liver microsome stability, read-out: Mouse T1/2) was 17.1 min, the half-life ([4]; comparison table with WO2016/101885 compounds, read-out: Dog Liver Microsome T1/2) was 2 min and the half-life ([4]; liver microsome stability, read-out: Dog T1/2) was 2.34 min. The half-life ([5]; comparison table with WO2016/101885 compounds, read-out: Monkey Liver Microsome T1/2) was 5 min, the half-life ([5]; liver microsome stability, read-out: Monkey T1/2) was 4.72 min and the half-life [6, 11] was 152 min. The half-life ([6]; Hepatocyte stability) was 152 min, the half-life [7] was 21.2 min and the half-life [8, 11] was 25 min. It also gave a half-life ([8]; Hepatocyte stability) of 24.9 min, an AUC(0-inf) (PK in rat; Rat, IV 2 mg/kg) of 540 ng·h/mL and a clearance (PK in rat; Rat, IV 2 mg/kg) of 61.7 mL/min/kg. For the same compound, the Vd (PK in rat; Rat, IV 2 mg/kg, read-out: Vdss) was 1.9 L/kg, the AUC(0-inf) (PK in rat; Rat, PO 20 mg/kg) was 1580 ng·h/mL and the Cmax (PK in rat; Rat, PO 20 mg/kg) was 1570 ng/mL. For the same compound, the AUC(0-inf) (PK in rat; Rat, PO 60 mg/kg) was 7520 ng·h/mL, the Cmax (PK in rat; Rat, PO 60 mg/kg) was 4910 ng/mL and the AUC (PK in rat; SD rat, PO, dose 60 mg/Kg micropower) was 7520 ng·h/mL. For the same compound, the half-life (PK in rat; iv, 2 mg/kg, IV 2 mg/kg) was 35.4 min, the bioavailability (PK in rat; po, 20 mg/kg, PO 20 mg/kg) was 39.4% and the half-life (PK in rat; po, 20 mg/kg, PO 20 mg/kg) was 84 min. For the same compound, the bioavailability (PK in rat; po, 60 mg/kg, PO 60 mg/kg) was 62.8%, the half-life (PK in rat; po, 60 mg/kg, PO 60 mg/kg) was 72 min and the bioavailability (PK in rat; [12]) was 62.8%. The half-life (PK in rat; [12]) was 70.2 min, the AUC(0-inf) (PK in mouse; IV 2 mg/kg) was 489 ng·h/mL and the clearance (PK in mouse; IV 2 mg/kg) was 68.2 mL/min/kg. It also gave a half-life (PK in mouse; IV 2 mg/kg) of 17.4 min, a Vd (PK in mouse; IV 2 mg/kg, read-out: Vdss) of 1.7 L/kg and an AUC(0-inf) (PK in mouse; PO 10 mg/kg) of 823 ng·h/mL. The Cmax (PK in mouse; PO 10 mg/kg) was 1000 ng/mL, the bioavailability (PK in mouse; PO 10 mg/kg) was 33.7% and the half-life (PK in mouse; PO 10 mg/kg) was 28.8 min. For the same compound, the AUC(0-inf) (PK in mouse; PO 40 mg/kg) was 5410 ng·h/mL, the Cmax (PK in mouse; PO 40 mg/kg) was 5420 ng/mL and the bioavailability (PK in mouse; PO 40 mg/kg) was 55.4%. The half-life (PK in mouse; PO 40 mg/kg) was 49.8 min, the AUC(0-inf) (PK in dog; IV 2 mg/kg) was 1840 ng·h/mL and the clearance (PK in dog; IV 2 mg/kg) was 18.5 mL/min/kg. The half-life (PK in dog; IV 2 mg/kg) was 61.2 min, the Vd (PK in dog; IV 2 mg/kg, read-out: Vdss) was 0.73 L/kg and the AUC(0-inf) (PK in dog; PO 10 mg/kg) was 1320 ng·h/mL. For the same compound, the Cmax (PK in dog; PO 10 mg/kg) was 981 ng/mL, the bioavailability (PK in dog; PO 10 mg/kg) was 14.9% and the half-life (PK in dog; PO 10 mg/kg) was 429 min. It also gave an AUC(0-inf) (PK in dog; PO 60 mg/kg) of 2050 ng·h/mL, a Cmax (PK in dog; PO 60 mg/kg) of 938 ng/mL and a bioavailability (PK in dog; PO 60 mg/kg) of 4.06%. It also gave a half-life (PK in dog; PO 60 mg/kg) of 339 min, an AUC(0-inf) (PK in dog; PO 150 mg/kg) of 7230 ng·h/mL and a Cmax (PK in dog; PO 150 mg/kg) of 2440 ng/mL. The bioavailability (PK in dog; PO 150 mg/kg) was 5.33%, the half-life (PK in dog; PO 150 mg/kg) was 714 min and the “EAE-induced myelin / spinal cord damage and animal paralysis” value ([9]; 10 g of compound per kilogram food, H&E stained spinal cord sections, listed as SIR1-365) was “significantly reduced EAE-induced myelin damage and animal paralysis; also recorded: substantial reduction of myelin damage”. The “disease score in EAE mice” value ([9]; delivered by food at 10 g/kg, 28 consecutive days) was “significantly reduced the disease score”, the “mice died within 36 hours” value ([10]; single oral gavage dose 1 mg/kg) was 50% and the “mice died within 36 hours” value ([10]; single oral gavage dose 3 mg/kg) was 25%. For the same compound, the “mortality caused by SIRS” value ([10]; single oral gavage dose 10 mg/kg, listed as SIR1-365) was “completely prevented mortality; also recorded: complete prevention”.

Source: patent publication US12129221B2, “Difluoro phenyl amide RIP1 inhibitor” (SIRONAX LTD, priority 2018, dated 2024)
